From ChEMBL document CHEMBL1129977, “Antitumor agents. 172. Synthesis and biological evaluation of novel deacetamidothiocolchicin-7-ols and ester analogs as antitubulin agents” (J Med Chem, 1997)

Tests used:
[1] = biological target: Tubulin alpha chain (Sus scrofa) (UniProt P02550); test: Binding affinity of [3H]- colchicine (5.0 uM) to tubulin (1.0 uM, 0.1 mg/mL) was evaluated at concentration of 50 uM
[2] = biological target: Tubulin alpha chain (Sus scrofa) (UniProt P02550); conditions: at 5 µM
[3] = biological target: Tubulin; test: Inhibition of Tubulin polymerization after 20 minutes of administration at 30 degree Centigrade; type: functional, organism-based
[4] = tested on: CA46; test: Inhibits the growth of the human Burkitt lymphoma CA46 cell; type: functional, cell-based

Sequence of Tubulin alpha chain (Sus scrofa) (P02550 whole entry, looked up): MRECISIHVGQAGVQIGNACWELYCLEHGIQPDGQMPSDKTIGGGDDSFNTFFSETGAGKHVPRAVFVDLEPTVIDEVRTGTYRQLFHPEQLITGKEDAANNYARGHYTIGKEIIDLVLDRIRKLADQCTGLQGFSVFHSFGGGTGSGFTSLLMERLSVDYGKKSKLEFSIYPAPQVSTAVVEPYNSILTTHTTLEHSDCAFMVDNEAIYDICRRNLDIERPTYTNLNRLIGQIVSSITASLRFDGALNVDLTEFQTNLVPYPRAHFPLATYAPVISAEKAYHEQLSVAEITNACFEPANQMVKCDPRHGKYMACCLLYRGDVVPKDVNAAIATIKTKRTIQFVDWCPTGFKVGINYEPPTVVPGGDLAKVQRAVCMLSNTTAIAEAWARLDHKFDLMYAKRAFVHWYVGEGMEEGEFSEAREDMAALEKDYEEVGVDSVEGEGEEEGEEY

SMILES	inhibition [1]	inhibition [2]	IC50 [3]	IC50 [4]
COc1cc2c(c(OC)c1OC)-c1ccc(SC)c(=O)cc1[C@H](O)CC2	73%	16%	–	–
COc1cc2c(c(OC)c1OC)-c1ccc(SC)c(=O)cc1C(OC(=O)c1ccccc1)CC2 (centres undefined)	–	–	1.4 µM	–
COc1cc2c(c(OC)c1OC)-c1ccc(SC)c(=O)cc1C(OC(=O)c1cccnc1)CC2 (centres undefined)	–	–	0.88 µM	–
COc1cc2c(c(OC)c1OC)-c1ccc(SC)c(=O)cc1[C@@H](OC(=O)c1cccnc1)CC2	–	65%	0.76 µM	27 µM
COc1cc2c(c(OC)c1OC)-c1ccc(SC)c(=O)cc1C(OC(=O)c1ccncc1)CC2 (centres undefined) [listing 1 of 2 here]	–	–	1.1 µM	–
COc1cc2c(c(OC)c1OC)-c1ccc(SC)c(=O)cc1[C@@H](OC(=O)c1ccncc1)CC2	–	69%	0.56 µM	2.8 µM
COc1cc2c(c(OC)c1OC)-c1ccc(SC)c(=O)cc1C(OC(=O)c1ccncc1)CC2 (centres undefined) [listing 2 of 2 here]	–	–	0.97 µM	–
COc1cc2c(c(OC)c1OC)-c1ccc(SC)c(=O)cc1C(=O)CC2 [THIOCOLCHICONE]	–	70%	0.76 µM	18 µM
COc1cc2c(c(OC)c1OC)-c1ccc(SC)c(=O)cc1[C@@H](O)CC2	–	85%	–	2.8 µM
COc1cc2c(c(OC)c1OC)-c1ccc(SC)c(=O)cc1C(Br)CC2 (centres undefined)	–	–	1.1 µM	–

More lines, main results first:

inhibition [1]	inhibition [2]	IC50 [3]	SMILES	IC50 [4]
74%	11%	–	COc1cc2c(c(OC)c1OC)-c1ccc(SC)c(=O)cc1[C@H](OC(C)=O)CC2	40 µM
–	–	1.4 µM	COc1cc2c(c(OC)c1OC)-c1ccc(SC)c(=O)cc1[C@@H](OC(=O)C13CCC(C)(C(=O)O1)C3(C)C)CC2 (some centres undefined)	–
–	–	17 µM	COc1cc2c(c(OC)c1OC)-c1ccc(SC)c(=O)cc1[C@H](OC(=O)C13CCC(C)(C(=O)O1)C3(C)C)CC2 (some centres undefined)	–
–	–	1.5 µM	CCCC(=O)OC1CCc2cc(OC)c(OC)c(OC)c2-c2ccc(SC)c(=O)cc21 (centres undefined)	–
–	66%	0.85 µM	CCCC(=O)O[C@H]1CCc2cc(OC)c(OC)c(OC)c2-c2ccc(SC)c(=O)cc21	29 µM
–	79%	–	COc1cc2c(c(OC)c1OC)-c1ccc(SC)c(=O)cc1[C@@H](OC(C)=O)CC2	3.4 µM
